Measurements taken from patent US8697739B2, “Bicyclic acetyl-CoA carboxylase inhibitors and uses thereof” (Novartis AG, priority 2010, dated 2014).

Target: T1, human acetyl-CoA carboxylase 2 (ACC2) (Homo sapiens, UniProt O00763)
T1 construct: The cDNA encoding amino acids 144 to 2458 of human acetyl-CoA carboxylase 2; made in house; host or cells: Sf9 insect cells (baculovirus, pFastBac1)
Assay: Acetyl-CoA carboxylase enzyme assay (malonyl-CoA formation by LC/MS/MS)
Format: biochemical
Settings: recombinant human ACC2 (aa 144-2458); read-out: IC50 ACC2
How it was run: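 Malonyl-CoA formation was read by LC/MS/MS MRM against a [13C3]-malonyl-CoA internal standard, after acetic acid quench. The enzyme was baculovirus/Sf9-expressed human ACC2 residues 144–2458, given 15 minutes room-temperature compound preincubation in HEPES pH 7.5 buffer with MgCl2, citrate and DTT. Substrate solution held 50 μM acetyl-CoA, 120 μM ATP and 2 mM KHCO3.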

T1 sequence (O00763 144-2458): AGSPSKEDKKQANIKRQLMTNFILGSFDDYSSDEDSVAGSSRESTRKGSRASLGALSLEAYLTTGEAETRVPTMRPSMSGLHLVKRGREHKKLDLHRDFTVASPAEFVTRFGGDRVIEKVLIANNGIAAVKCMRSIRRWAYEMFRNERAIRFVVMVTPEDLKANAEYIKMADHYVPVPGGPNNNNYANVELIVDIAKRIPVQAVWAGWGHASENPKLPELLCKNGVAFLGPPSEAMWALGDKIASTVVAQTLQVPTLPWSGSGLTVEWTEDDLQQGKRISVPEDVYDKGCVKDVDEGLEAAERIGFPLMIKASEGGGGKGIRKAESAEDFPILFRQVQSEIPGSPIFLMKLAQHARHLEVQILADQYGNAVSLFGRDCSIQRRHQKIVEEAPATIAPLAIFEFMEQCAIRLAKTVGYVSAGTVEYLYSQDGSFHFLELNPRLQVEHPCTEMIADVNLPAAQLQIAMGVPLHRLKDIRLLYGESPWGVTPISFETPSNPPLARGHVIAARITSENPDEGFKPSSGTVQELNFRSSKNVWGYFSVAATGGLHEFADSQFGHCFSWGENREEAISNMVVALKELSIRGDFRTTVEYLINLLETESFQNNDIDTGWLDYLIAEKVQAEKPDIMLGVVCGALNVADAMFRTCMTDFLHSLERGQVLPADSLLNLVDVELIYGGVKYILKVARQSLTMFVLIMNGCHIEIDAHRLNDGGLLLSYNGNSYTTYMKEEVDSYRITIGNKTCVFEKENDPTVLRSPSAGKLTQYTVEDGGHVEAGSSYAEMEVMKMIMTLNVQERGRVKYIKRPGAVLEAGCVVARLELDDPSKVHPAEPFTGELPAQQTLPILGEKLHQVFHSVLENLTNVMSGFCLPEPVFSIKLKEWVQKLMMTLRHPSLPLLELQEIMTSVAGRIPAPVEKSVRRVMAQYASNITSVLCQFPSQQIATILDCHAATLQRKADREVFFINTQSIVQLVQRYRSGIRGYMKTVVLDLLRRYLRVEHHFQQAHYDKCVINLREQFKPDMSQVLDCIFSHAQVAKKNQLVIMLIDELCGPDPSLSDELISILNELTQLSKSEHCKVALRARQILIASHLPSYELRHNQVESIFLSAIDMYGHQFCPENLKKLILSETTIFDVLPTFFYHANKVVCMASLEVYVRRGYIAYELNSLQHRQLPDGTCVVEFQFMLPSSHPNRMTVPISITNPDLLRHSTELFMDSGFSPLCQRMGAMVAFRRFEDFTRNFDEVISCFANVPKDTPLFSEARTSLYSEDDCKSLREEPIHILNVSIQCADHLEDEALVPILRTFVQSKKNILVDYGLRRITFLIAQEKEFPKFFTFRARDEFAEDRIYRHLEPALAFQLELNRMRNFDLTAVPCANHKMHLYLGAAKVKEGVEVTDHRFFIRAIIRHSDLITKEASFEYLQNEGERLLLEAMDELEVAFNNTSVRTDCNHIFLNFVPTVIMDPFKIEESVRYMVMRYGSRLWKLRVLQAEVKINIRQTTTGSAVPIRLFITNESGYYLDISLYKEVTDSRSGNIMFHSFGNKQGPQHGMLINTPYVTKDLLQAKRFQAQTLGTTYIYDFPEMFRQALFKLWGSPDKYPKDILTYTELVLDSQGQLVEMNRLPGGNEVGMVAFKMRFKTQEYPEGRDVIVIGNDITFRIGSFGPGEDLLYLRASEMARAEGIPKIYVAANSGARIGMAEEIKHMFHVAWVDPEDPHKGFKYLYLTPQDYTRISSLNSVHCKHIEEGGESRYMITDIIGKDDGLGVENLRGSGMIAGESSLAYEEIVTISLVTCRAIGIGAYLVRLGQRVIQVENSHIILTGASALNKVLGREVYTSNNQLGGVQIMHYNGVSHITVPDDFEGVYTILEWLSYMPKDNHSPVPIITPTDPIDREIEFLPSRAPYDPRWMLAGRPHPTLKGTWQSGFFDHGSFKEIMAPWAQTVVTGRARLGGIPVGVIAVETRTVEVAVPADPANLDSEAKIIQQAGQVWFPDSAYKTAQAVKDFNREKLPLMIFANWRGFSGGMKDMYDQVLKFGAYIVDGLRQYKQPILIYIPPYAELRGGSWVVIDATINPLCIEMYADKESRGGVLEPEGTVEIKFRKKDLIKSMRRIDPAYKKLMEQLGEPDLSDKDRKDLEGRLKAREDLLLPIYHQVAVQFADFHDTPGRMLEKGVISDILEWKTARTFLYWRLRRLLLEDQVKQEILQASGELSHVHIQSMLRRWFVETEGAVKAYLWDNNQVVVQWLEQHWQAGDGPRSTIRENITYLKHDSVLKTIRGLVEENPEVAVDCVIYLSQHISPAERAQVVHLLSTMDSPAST

Compound `COC(=O)CN1CCCc2ccc(S(=O)(=O)N[C@H]3CC[C@H](C(=O)N[C@H](C)c4ccc(F)cc4)CC3)cc21` [Example 164, methyl 2-(7-(N-((1R,4r)-4-((R)-1-(4-fluorophenyl)ethylcarbamoyl)cyclohexyl)sulfamoyl)-3,4-dihydroquinolin-1(2H)-yl)acetate] has an IC50 of 350 nM.

In the case of `Cc1cnc2c(S(=O)(=O)N[C@H]3CC[C@H](C(=O)N[C@H](C)c4ccc(F)cc4)CC3)cccc2c1` [Example 165, (1r,4R)-N-((R)-1-(4-fluorophenyl)ethyl)-4-(3-methylquinoline-8-sulfonamido)cyclohexanecarboxamide], the IC50 is reported as 675 nM.

For `C[C@@H](NC(=O)[C@H]1CC[C@H](NS(=O)(=O)c2ccc3c(c2)N(CC(=O)O)CCC3)CC1)c1ccc(F)cc1` [Example 166, 2-(7-(N-((1R,4r)-4-((R)-1-(4-fluorophenyl)ethylcarbamoyl)cyclohexyl)sulfamoyl)-3,4-dihydroquinolin-1(2H)-yl)acetic acid], the IC50 was 910 nM.

With `CC(C)CC1CCc2cc(S(=O)(=O)N[C@H]3CC[C@H](C(=O)N[C@H](C)c4ccc(F)cc4)CC3)ccc2N1` (stereo partly drawn) [Example 167, (1r,4R)-N-((R)-1-(4-fluorophenyl)ethyl)-4-(2-isobutyl-1,2,3,4-tetrahydroquinoline-6-sulfonamido)cyclohexanecarboxamide] the IC50 was 205 nM.

For `CC1CCc2ccc(S(=O)(=O)N[C@H]3CC[C@H](C(=O)N[C@H](C)c4ccc(F)cc4)CC3)cc2N1` (stereo partly drawn) [Example 168, (1r,4R)-N-((R)-1-(4-fluorophenyl)ethyl)-4-(2-methyl-1,2,3,4-tetrahydroquinoline-7-sulfonamido)cyclohexanecarboxamide], the IC50 was 40 nM.

For `CC1CCc2cc(S(=O)(=O)N[C@H]3CC[C@H](C(=O)N[C@H](C)c4ccc(F)cc4)CC3)ccc2N1` (stereo partly drawn) [Example 169, (1r,4R)-N-((R)-1-(4-fluorophenyl)ethyl)-4-(2-methyl-1,2,3,4-tetrahydroquinoline-6-sulfonamido)cyclohexanecarboxamide], the IC50 was 110 nM.

`CC[C@H]1CCc2cc(S(=O)(=O)N[C@H]3CC[C@H](C(=O)N[C@H](C)c4ccc(F)cc4)CC3)ccc2N1` [Example 170, (1r,4R)-4-((S)-2-ethyl-1,2,3,4-tetrahydroquinoline-6-sulfonamido)-N-((R)-1-(4-fluorophenyl)ethyl)cyclohexanecarboxamide] showed an IC50 of 90 nM.

With `CC[C@@H]1CCc2cc(S(=O)(=O)N[C@H]3CC[C@H](C(=O)N[C@H](C)c4ccc(F)cc4)CC3)ccc2N1` [Example 171, (1r,4R)-4-((R)-2-ethyl-1,2,3,4-tetrahydroquinoline-6-sulfonamido)-N-((R)-1-(4-fluorophenyl)ethyl)cyclohexanecarboxamide] the IC50 was 289 nM.

`C[C@@H]1CNc2ncc(S(=O)(=O)N[C@H]3CC[C@H](C(=O)N[C@H](C)c4ccc(F)cc4)CC3)cc2N1` [Example 172, (1R,4R)-N-((R)-1-(4-fluorophenyl)ethyl)-4-((R)-2-methyl-1,2,3,4-tetrahydropyrido[3,2-b]pyrazine-7-sulfonamido)cyclohexanecarboxamide] showed an IC50 of 212 nM.

`CC(C)(C)OC(=O)N1CCN(C(=O)C2CCC(NS(=O)(=O)c3ccc4c(c3)CCCN4)CC2)C(c2ccccc2)C1` (stereo not drawn) [Example 173, tert-butyl 3-phenyl-4-((1r,4r)-4-(1,2,3,4-tetrahydroquinoline-6-sulfonamido)cyclohexanecarbonyl)piperazine-1-carboxylate] was tested, and the IC50 was 75 nM.

In the case of `CC(C)(C)OC(=O)N1CCN(C(=O)[C@H]2CC[C@H](NS(=O)(=O)c3ccc4c(c3)NCCC4)CC2)C(c2ccccc2)C1` (stereo partly drawn) [Example 174, tert-butyl 3-phenyl-4-((1r,4r)-4-(1,2,3,4-tetrahydroquinoline-7-sulfonamido)cyclohexanecarbonyl)piperazine-1-carboxylate], the IC50 is reported as 45 nM.

`O=C([C@H]1CC[C@H](NS(=O)(=O)c2ccc3c(c2)CCCN3)CC1)N1CCNCC1c1ccccc1` (stereo partly drawn) [Example 175, N-((1r,4r)-4-(2-phenylpiperazine-1-carbonyl)cyclohexyl)-1,2,3,4-tetrahydroquinoline-6-sulfonamide] showed an IC50 of 120 nM.

`O=C([C@H]1CC[C@H](NS(=O)(=O)c2ccc3c(c2)NCCC3)CC1)N1CCNCC1c1ccccc1` (stereo partly drawn) [Example 176, N-((1r,4r)-4-(2-phenylpiperazine-1-carbonyl)cyclohexyl)-1,2,3,4-tetrahydroquinoline-7-sulfonamide] gave an IC50 of 105 nM.

`O=C([C@H]1CC[C@H](NS(=O)(=O)c2ccc3c(c2)CCCN3)CC1)N1CCOCC1c1ccccc1` (stereo partly drawn) [Example 177, N-((1r,4r)-4-(3-phenylmorpholine-4-carbonyl)cyclohexyl)-1,2,3,4-tetrahydroquinoline-6-sulfonamide] was tested, and the IC50 was 90 nM.

`O=C([C@H]1CC[C@H](NS(=O)(=O)c2ccc3c(c2)NCCC3)CC1)N1CCOCC1c1ccccc1` (stereo partly drawn) [Example 178, N-((1r,4r)-4-(3-phenylmorpholine-4-carbonyl)cyclohexyl)-1,2,3,4-tetrahydroquinoline-7-sulfonamide] was tested, and the IC50 was 55 nM.

`CC(C)(C)OC(=O)N1CCN(C(=O)[C@H]2CC[C@H](NS(=O)(=O)c3ccc4c(c3)CCC(C(F)(F)F)N4)CC2)C(c2ccccc2)C1` (stereo partly drawn) [Example 179, tert-butyl 3-phenyl-4-((1r,4r)-4-(2-(trifluoromethyl)-1,2,3,4-tetrahydroquinoline-6-sulfonamido)cyclohexanecarbonyl)piperazine-1-carboxylate] gave an IC50 of 433 nM.

Work on `CN1CCN(C)c2ncc(S(=O)(=O)N[C@H]3CC[C@H](C(=O)N4CCN(C(=O)OCc5ccccc5)CC4c4ccccc4)CC3)cc21` (stereo partly drawn) [Example 180, benzyl 4-((1r,4r)-4-(1,4-dimethyl-1,2,3,4-tetrahydropyrido[3,2-b]pyrazine-7-sulfonamido)cyclohexanecarbonyl)-3-phenylpiperazine-1-carboxylate] yielded an IC50 of 138 nM.

In the case of `O=C(OCc1ccccc1)N1CCN(C(=O)[C@H]2CC[C@H](NS(=O)(=O)c3cnc4c(c3)NCCN4)CC2)C(c2ccccc2)C1` (stereo partly drawn) [Example 181, benzyl 3-phenyl-4-((1r,4r)-4-(1,2,3,4-tetrahydropyrido[3,2-b]pyrazine-7-sulfonamido)cyclohexanecarbonyl)piperazine-1-carboxylate], the IC50 is reported as 115 nM.

Compound `O=C([C@H]1CC[C@H](NS(=O)(=O)c2ccc3c(c2)CCC(C(F)(F)F)N3)CC1)N1CCNCC1c1ccccc1` (stereo partly drawn) [Example 182, N-((1r,4r)-4-(2-phenylpiperazine-1-carbonyl)cyclohexyl)-2-(trifluoromethyl)-1,2,3,4-tetrahydroquinoline-6-sulfonamide] has an IC50 of 685 nM.

With `CN1CCN(C)c2ncc(S(=O)(=O)N[C@H]3CC[C@H](C(=O)N4CCNCC4c4ccccc4)CC3)cc21` (stereo partly drawn) [Example 183, 1,4-dimethyl-N-((1r,4r)-4-(2-phenylpiperazine-1-carbonyl)cyclohexyl)-1,2,3,4-tetrahydropyrido[3,2-b]pyrazine-7-sulfonamide] the IC50 was 135 nM.

`C[C@@H](NC(=O)[C@H]1CC[C@H](NS(=O)(=O)c2ccc3c(c2)C(NC(=O)C(F)(F)F)CCN3C(=O)C(F)(F)F)CC1)c1ccc(F)cc1` (stereo partly drawn) [Example 184, (1r,4R)-N-((R)-1-(4-fluorophenyl)ethyl)-4-(4-(2,2,2-trifluoroacetamido)-1-(2,2,2-trifluoroacetyl)-1,2,3,4-tetrahydroquinoline-6-sulfonamido)cyclohexanecarboxamide] showed an IC50 greater than 35000 nM.
